Data on two molecules can be found in article PMC4081560 (PLoS ONE, 2014).

For test [1], the system named is K/2785 virus (A/Korea/2785/2009). Type of test: cell-based, 2009 pandemic H1N1 oseltamivir-resistant variant.
For test [2], the target named is K/2785 virus (A/Korea/2785/2009) neuraminidase (NA H275Y) (Influenza A virus, UniProt C5MQP8, H275Y). Type of test: biochemical, 2009 pandemic H1N1 oseltamivir-resistant variant.

Structures are written as SMILES.

For the molecule `NC(=O)c1nc(F)cnc1O` [Favipiravir, 6-fluoro-3-hydroxy-2-pyrazinecarboxamide], a half-maximal effect in test [1] (EC50) was put at 10.8 µM.

For the molecule `CCC(CC)[C@H](NC(C)=O)[C@@H]1[C@H](O)[C@@H](C(=O)O)C[C@H]1N=C(N)N` [Peramivir], in test [2], 29.8 nM corresponded to half-maximal inhibition (IC50) and the “higher concentration needed compared with K/09 virus” value was “more than 20 fold”.
